Assay: Antioxidant activity in soybean large unilamellar vesicles assessed as inhibition of AAPH-induced lipid peroxidation compound added prior to AAPH induction measured after 90 mins by UV-visible absorption spectrometric analysis
Format: physicochemical

Compound	IC50 [nM]
CCCCCCCC/C=C/CCCCCCCc1c(C)c(O)cc2c1[nH]c1ccccc12	160
Cc1cc2[nH]c3ccccc3c2cc1O	1000
O=c1c(O)c(-c2ccc(O)c(O)c2)oc2cc(O)cc(O)c12 [QUERCETIN]	200
VITAMIN E	800
